Source: patent US20230200390A1, “SELECTIVE HERBICIDES BASED ON SUBSTITUTED ISOXAZOLIN CARBOXAMIDES AND MEFENPYR-DIETHYL” (BAYER AKTIENGESELLSCHAFT, priority 2020, published 2023)

Experiments:
Assay type in all cases: in vivo
[1] = test system: spring wheat, TRZAS Triso; experiment: Seed treatment with safener; post-emergence herbicide, crop damage; settings: for HER effect + SAF [%] (crop damage) / Reduction [%] / Reduction [Difference]: mefenpyr-diethyl 0.5 g a.i./kg seed; for HER effect [%] (crop damage, herbicide without safener): no safener
Source text: (§1) For safener seed treatment trials, sufficient seed amounts of the respective crops (spring wheat (TRZAS); spring barley (HORVS)) were weighed into screw cap glass bottles with a minimum volume trice of the seeds.
(§2) As a first step, specified safeners formulated as wettable powder (WP) or wettable granules (WG) were weighed out for the required dosages (g a.i./kg seed), corresponding to the seed amounts. The safener amounts were mixed with a coloured slurry blind formulation type, prediluted with milk at 3.5% fat rate (25 mgs slurry formulation plus 2 ml milk per 10 grams of seed). A tube roller was used for coating. The solutions were gradually pipetted each on the rotating seeds followed by coating for min. 3 hours until all liquid had been soaked up by the seeds. Thereafter, the coated seeds were put flat on open trays for drying over night at room temperature.
(§3) Treated seeds were then placed into pots (7 cm diameter) on the surface of sandy loam, pressed down, flat covered with additional soil and finally covered with sandy soil, also pressed down, watered, and kept under good growth conditions in a greenhouse, until the plants had reached 2-leaf-stage (BBCH 12).
(§4) At that stage, post-emergence application of the specified herbicides was done on:
(§5) a) pot sets containing plants with safener-coated seeds as described above,
(§6) b) as a reference, pot sets of plants without seed treatment.
(§7) The herbicides were formulated as wettable powder (WP). Equivalent to the spray area, compound amounts were weighed out and diluted related to the water application rate (300 l/ha) to an aqueous suspension plus additive (1 l/ha MERO). Dosage related equivalents were conventionally sprayed on trays with the potted plants.
(§8) After application, the test plants were kept under good growth conditions in a greenhouse.
(§9) Assessment timings were 10 and 21 days after treatment (DAT) with the herbicide, by visual scoring of the crop damage in % (comparison of untreated with treated plants, either sprayed only with herbicide or with herbicide on plants with treated seeds).

[2] = test system: spring barley, HORVS Montoya; experiment: as above; settings: for HER effect + SAF / Reduction [%] / Reduction [Difference]: mefenpyr-diethyl 0.5 g a.i./kg seed
Source text: as §1, §2, §3, §4, §5, §6, §7, §8, §9

[3] = test system: spring wheat, TRZAS Triso; experiment: Tank-mix; post-emergence: crop damage by herbicide with/without safener mefenpyr-diethyl
Procedure: (§10) Seeds of crops (spring wheat, TRZAS; spring barley, HORVS; maize, ZEAMA) were placed in sandy loam soil in peat pots, covered with soil and cultivated in a greenhouse under good growth conditions. Two to three weeks after sowing, the test plants were treated at the 1 to 3-leaf stage. The herbicide/safener active compound combinations according to the invention, formulated as wettable powders or emulsion concentrates, and, in parallel tests, the correspondingly formulated individual active compounds were sprayed onto the green parts of the plants in various dosages using an amount of water of 300 l/ha (converted).
(§11) The pots were returned under good growing conditions in a glasshouse and a visual assessment of herbicidal effects was made at intervals from 1 to 3 weeks after herbicide application (DAT=days after treatment). Assessment was on a percentage basis in comparison with untreated control plants (0%=no injury, 100%=complete kill).

[4] = test system: spring barley, HORVS Montoya; experiment: as above
Procedure: as §10, §11

[5] = HER 8 g a.i./ha post-emergence, 21 DAT
[6] = HER 32 g a.i./ha post-emergence, 21 DAT
[7] = herbicide alone 8 g a.i./ha post-emergence, 21 DAT
[8] = herbicide alone 32 g a.i./ha post-emergence, 21 DAT
[9] = HER 8 g a.i./ha + mefenpyr-diethyl 50 g a.i./ha, 10 DAT
[10] = HER 32 g a.i./ha + mefenpyr-diethyl 100 g a.i./ha, 10 DAT
[11] = herbicide alone 8 g a.i./ha, 10 DAT
[12] = herbicide alone 32 g a.i./ha, 10 DAT
[13] = HER 8 g a.i./ha + mefenpyr-diethyl 50 g a.i./ha, 21 DAT
[14] = HER 32 g a.i./ha + mefenpyr-diethyl 100 g a.i./ha, 21 DAT
[15] = herbicide alone 32 g a.i./ha, 21 DAT
[16] = HER 8 g a.i./ha post-emergence, 10 DAT
[17] = HER 32 g a.i./ha post-emergence, 10 DAT
[18] = HER 1.5 g a.i./ha + mefenpyr-diethyl 50 g a.i./ha, 10 DAT
[19] = HER 6 g a.i./ha + mefenpyr-diethyl 50 g a.i./ha, 10 DAT
[20] = HER 24 g a.i./ha + mefenpyr-diethyl 100 g a.i./ha, 10 DAT
[21] = herbicide alone 6 g a.i./ha, 10 DAT
[22] = herbicide alone 24 g a.i./ha, 10 DAT
[23] = HER 24 g a.i./ha post-emergence, 10 DAT

SMILES: C=CC1(C(=O)NC2COC(C(=O)OC)C2)CC(c2cc(C)cc(F)c2)=NO1 (mixture of isomers) [Example 1.71]
- HER effect + SAF [%] (crop damage) ([1]; 10 DAT, HER dose 8 g a.i./ha): 0%
- Reduction [%] ([1]; 10 DAT, HER dose 8 g a.i./ha): 100%
- Reduction [Difference] ([1]; 10 DAT, HER dose 8 g a.i./ha): 50
- HER effect [%] (crop damage, herbicide without safener) ([1]; 10 DAT, HER dose 8 g a.i./ha): 50%
- HER effect + SAF [%] (crop damage) ([1]; 10 DAT, HER dose 32 g a.i./ha): 0%
- Reduction [%] ([1]; 10 DAT, HER dose 32 g a.i./ha): 100%
- Reduction [Difference] ([1]; 10 DAT, HER dose 32 g a.i./ha): 85
- HER effect [%] (crop damage, herbicide without safener) ([1]; 10 DAT, HER dose 32 g a.i./ha): 85%
- HER effect + SAF [2, 5]: 30%
- Reduction [%] [2, 5]: 40%
- Reduction [Difference] [2, 5]: 20
- HER effect + SAF [2, 6]: 40%
- Reduction [%] [2, 6]: 43%
- Reduction [Difference] [2, 6]: 30
- HER effect [2, 7]: 50%
- HER effect [2, 8]: 70%
- HER effect + SAF [3, 9]: 0%
- Reduction [%] [3, 9]: 100%
- Reduction [Difference] [3, 9]: 50
- HER effect + SAF [3, 10]: 20%
- Reduction [%] [3, 10]: 76%
- Reduction [Difference] [3, 10]: 65
- HER effect [3, 11]: 50%
- HER effect [3, 12]: 85%
- HER effect + SAF [4, 13]: 20%
- Reduction [%] [4, 13]: 60%
- Reduction [Difference] [4, 13]: 30
- HER effect + SAF [4, 14]: 50%
- Reduction [%] [4, 14]: 29%
- Reduction [Difference] [4, 14]: 20
- HER effect ([4]; herbicide alone 8 g a.i./ha, 21 DAT): 50%
- HER effect [4, 15]: 70%

SMILES: COC(=O)C1CC(NC(=O)C2(OC)CC(c3cc(F)cc(F)c3)=NO2)CO1 (mixture of isomers) [Example 1.72]
- HER effect + SAF [%] (crop damage) ([1]; 21 DAT, HER dose 8 g a.i./ha): 0%
- Reduction [%] ([1]; 21 DAT, HER dose 8 g a.i./ha): 100%
- Reduction [Difference] ([1]; 21 DAT, HER dose 8 g a.i./ha): 20
- HER effect [%] (crop damage, herbicide without safener) ([1]; 21 DAT, HER dose 8 g a.i./ha): 20%
- HER effect + SAF [%] (crop damage) ([1]; 21 DAT, HER dose 32 g a.i./ha): 10%
- Reduction [%] ([1]; 21 DAT, HER dose 32 g a.i./ha): 83%
- Reduction [Difference] ([1]; 21 DAT, HER dose 32 g a.i./ha): 50
- HER effect [%] (crop damage, herbicide without safener) ([1]; 21 DAT, HER dose 32 g a.i./ha): 60%
- HER effect + SAF [2, 16]: 0%
- Reduction [%] [2, 16]: 100%
- Reduction [Difference] [2, 16]: 30
- HER effect + SAF [2, 17]: 0%
- Reduction [%] [2, 17]: 100%
- Reduction [Difference] [2, 17]: 50
- HER effect ([2]; herbicide alone 8 g a.i./ha post-emergence, 10 DAT): 30%
- HER effect ([2]; herbicide alone 32 g a.i./ha post-emergence, 10 DAT): 50%
- HER effect + SAF [3, 14]: 10%
- Reduction [%] [3, 14]: 83%
- Reduction [Difference] [3, 14]: 50
- HER effect [3, 15]: 60%
- HER effect + SAF [4, 9]: 0%
- Reduction [%] [4, 9]: 100%
- Reduction [Difference] [4, 9]: 30
- HER effect + SAF [4, 10]: 10%
- Reduction [%] [4, 10]: 80%
- Reduction [Difference] [4, 10]: 40
- HER effect [4, 11]: 30%
- HER effect [4, 12]: 50%

SMILES: CC(C)OC(=O)C1CC(NC(=O)C2(C)CC(c3cccc(F)c3)=NO2)CO1 (mixture of isomers) [Example 1.78]
- HER effect + SAF [%] (crop damage) ([1]; 10 DAT, HER dose 6 g a.i./ha): 30%
- Reduction [%] ([1]; 10 DAT, HER dose 6 g a.i./ha): 57%
- Reduction [Difference] ([1]; 10 DAT, HER dose 6 g a.i./ha): 40
- HER effect [%] (crop damage, herbicide without safener) ([1]; 10 DAT, HER dose 6 g a.i./ha): 70%
- HER effect + SAF [%] (crop damage) ([1]; 10 DAT, HER dose 24 g a.i./ha): 30%
- Reduction [%] ([1]; 10 DAT, HER dose 24 g a.i./ha): 57%
- Reduction [Difference] ([1]; 10 DAT, HER dose 24 g a.i./ha): 40
- HER effect [%] (crop damage, herbicide without safener) ([1]; 10 DAT, HER dose 24 g a.i./ha): 70%
- HER effect + SAF [2, 5]: 0%
- Reduction [%] [2, 5]: 100%
- Reduction [Difference] [2, 5]: 20
- HER effect + SAF [2, 6]: 10%
- Reduction [%] [2, 6]: 75%
- Reduction [Difference] [2, 6]: 30
- HER effect [2, 7]: 20%
- HER effect [2, 8]: 40%
- HER effect + SAF [3, 18]: 0%
- Reduction [%] [3, 18]: 100%
- Reduction [Difference] [3, 18]: 20
- HER effect + SAF [3, 19]: 10%
- Reduction [%] [3, 19]: 86%
- Reduction [Difference] [3, 19]: 60
- HER effect + SAF [3, 20]: 30%
- Reduction [%] [3, 20]: 57%
- Reduction [Difference] [3, 20]: 40
- HER effect ([3]; herbicide alone 1.5 g a.i./ha, 10 DAT): 20%
- HER effect [3, 21]: 70%
- HER effect [3, 22]: 70%
- HER effect + SAF [4, 14]: 10%
- Reduction [%] [4, 14]: 75%
- Reduction [Difference] [4, 14]: 30
- HER effect [4, 15]: 40%

SMILES: CC1(C(=O)NC2COC(C(=O)OCc3ccccc3)C2)CC(c2cccc(F)c2)=NO1 (mixture of isomers) [Example 1.79]
- HER effect + SAF [%] (crop damage) ([1]; 10 DAT, HER dose 24 g a.i./ha): 30%
- Reduction [%] ([1]; 10 DAT, HER dose 24 g a.i./ha): 40%
- Reduction [Difference] ([1]; 10 DAT, HER dose 24 g a.i./ha): 20
- HER effect [%] (crop damage, herbicide without safener) ([1]; 10 DAT, HER dose 24 g a.i./ha): 50%
- HER effect + SAF [2, 23]: 40%
- Reduction [%] [2, 23]: 43%
- Reduction [Difference] [2, 23]: 30
- HER effect ([2]; herbicide alone 24 g a.i./ha post-emergence, 10 DAT): 70%
- HER effect + SAF [3, 19]: 0%
- Reduction [%] [3, 19]: 100%
- Reduction [Difference] [3, 19]: 30
- HER effect + SAF [3, 20]: 10%
- Reduction [%] [3, 20]: 80%
- Reduction [Difference] [3, 20]: 40
- HER effect [3, 21]: 30%
- HER effect [3, 22]: 50%
- HER effect + SAF [4, 19]: 0%
- Reduction [%] [4, 19]: 100%
- Reduction [Difference] [4, 19]: 20
- HER effect + SAF [4, 20]: 0%
- Reduction [%] [4, 20]: 100%
- Reduction [Difference] [4, 20]: 70
- HER effect [4, 21]: 20%
- HER effect [4, 22]: 70%
